Consider 13 compounds from ChEMBL document CHEMBL1926505, “Lanostane and hopane triterpenes from the entomopathogenic fungus Hypocrella sp. BCC 14524” (J Nat Prod, 2011).

≈ marks a conversion by molar mass, not a printed value. Calls of active or inactive are those of the source. No cut-off for these calls is given here. Bounds are passed on as bounds.

In data set [1] the test system is KB. Nature of the data set: Cytotoxicity against human KB cells by resazurin microplate assay. Format: functional, cell-based. (In general: Resazurin is reduced to fluorescent resorufin, in cell work by metabolically active cells.)
Data set [2] deals with NCI-H187. Nature of the data set: Cytotoxicity against human NCI-H187 cells by resazurin microplate assay. The data set is classed as functional, cell-based.
Data set [3] has as its system Mycobacterium tuberculosis. The data set is described as follows: Antimycobacterial activity against Mycobacterium tuberculosis H37Ra by green fluorescent protein microplate assay. The data set is classed as functional.
Data set [4] has as its system Plasmodium falciparum. Nature of the data set: Antimalarial activity against multidrug-resistant Plasmodium falciparum K1 by microculture radioisotope technique. The data set is classed as functional, organism-based.
The test system of data set [5] is MCF7. The data set is described as follows: Cytotoxicity against human MCF7 cells by resazurin microplate assay. Format: functional, cell-based.
Data set [6] concerns Vero. Nature of the data set: Cytotoxicity against african green monkey Vero cells by green fluorescent protein microplate assay. Format: cell-based. The conditions noted are these: chlorocebus sabaeus.

As to `C=C(C)[C@H]1CC[C@]2(C)[C@H]3CC[C@@H]4[C@@]5(C)CC[C@H](OC(C)=O)C(C)(C)[C@@H]5CC[C@@]4(C)[C@]3(C)[C@@H](O)C[C@@H]12`, the outcome in data set [1], in data set [2], in data set [3], in data set [4] and in data set [5] was inactive. For the same compound, the Activity result in data set [6] is “Non-toxic”.

In general, IC50 refers to the concentration that inhibits the measured activity by half. In general, MIC refers to the least concentration at which growth counts as inhibited. Consider `CC(C)(O)[C@H]1CC[C@]2(C)[C@H]3CC[C@@H]4[C@@]5(C)CC[C@H](O)C(C)(C)[C@@H]5C[C@H](O)[C@@]4(C)[C@]3(C)[C@@H](O)C[C@@H]12`, for which the IC50 in data set [1] was 28 µM; in data set [2], 12 µM; in data set [4] it was 12 µM; in data set [5], over 105 µM; in data set [6], 47 µM. The compound further gave a minimum inhibitory concentration (MIC) in data set [3] of 50 µg/mL (≈ 105 µM).

Consider `CC(=O)O[C@H]1CC[C@]2(C)[C@H]3CC[C@@H]4[C@@]5(C)CC[C@H](C(C)(C)O)[C@@H]5C[C@H](O)[C@@]4(C)[C@]3(C)[C@@H](O)C[C@H]2C1(C)C`, for which the IC50 was 56 µM in data set [1]; 11 µM in data set [2]; 5.2 µM in data set [4]; over 96 µM in data set [5]; 13 µM in data set [6]. Moreover, the MIC in data set [3] was determined as 6.25 µg/mL (≈ 12 µM).

In turn, `CC(C)(O)[C@H]1CC[C@]2(C)[C@H]3CC[C@@H]4[C@@]5(C)CC[C@H](O)C(C)(C)[C@@H]5CC[C@@]4(C)[C@]3(C)[C@@H](O)C[C@@H]12` returned an MIC in data set [3] of over 50 µg/mL. In data set [6], the Activity result is “Non-toxic”.

In data set [3], `CC(=O)O[C@H]1CC[C@]2(C)[C@H]3CC[C@@H]4[C@@]5(C)CC[C@H](C(C)(C)O)[C@@H]5C[C@H](O)[C@@]4(C)[C@]3(C)CC[C@H]2C1(C)C` came in with an MIC of 12.5 µg/mL (≈ 24.9 µM). In data set [6], the Activity result is reported as “Non-toxic”.

For `CC(C)(O)[C@H]1CC[C@]2(C)[C@H]3CC[C@@H]4[C@@]5(C)CCCC(C)(C)[C@@H]5CC[C@@]4(C)[C@]3(C)[C@@H](O)C[C@@H]12`, in data set [3], the MIC is 12.5 µg/mL (≈ 28.1 µM). For the same compound, the Activity result in data set [6] was “Non-toxic”.

`C=C(C)[C@H]1CC[C@]2(C)[C@H]3CC[C@@H]4[C@@]5(C)CCCC(C)(C)[C@@H]5C[C@H](O)[C@@]4(C)[C@]3(C)[C@@H](O)C[C@@H]12` (relative stereo): the result in data set [1], in data set [2], in data set [3], in data set [4] and in data set [5] was inactive. Also, in data set [6], the Activity result is given as “Non-toxic”.

Turning to `C[C@H]1[C@@H](O)O[C@@H]2O[C@@]3(C)CC[C@H]4[C@H](C)CC[C@@H]1[C@@]24OO3` [ARTENIMOL], the IC50 in data set [4] was 0.0011 µM.

Compound `Cc1c2ccncc2c(C)c2c1[nH]c1ccccc12` [ELLIPTECINE] returned an IC50 in data set [6] of 9.8 µM.

Take `CC(C)(O)[C@H]1CC[C@H]([C@H]2CC[C@@]3(C)C4=CC[C@H]5C(C)(C)[C@@H](O)CC[C@]5(C)C4=CC[C@]23C)CO1` [HYPOCRELLOL A]: the outcome in data set [1], in data set [2], in data set [3], in data set [4] and in data set [5] was inactive. The Activity result in data set [6] was “Non-toxic”.

On to `CC(=O)O[C@H]1CC[C@]2(C)C3=CC[C@]4(C)[C@@H]([C@H]5CC[C@H](C(C)(C)O)OC5)CC[C@@]4(C)C3=CC[C@H]2C1(C)C` [HYPOCRELLOL B], for which the result in data set [1], in data set [2], in data set [3], in data set [4] and in data set [5] was inactive. Besides, the Activity entry in data set [6] is on record as “Non-toxic”.

Take `CC(=O)O[C@H]1CC[C@]2(C)C3=C(CC[C@H]2C1(C)C)[C@]1(C)CC[C@H]([C@H]2CC[C@H](C(C)(C)O)OC2)[C@@]1(C)C[C@H]3O` [HYPOCRELLOL D]: the IC50 was 15 µM in data set [1]; 18 µM in data set [2]; 8 µM in data set [4]; 38 µM in data set [5]; 30 µM in data set [6]. This compound registered an MIC in data set [3] of 50 µg/mL (≈ 96.8 µM).

Compound `NNC(=O)c1ccncc1` [ISONIAZID] showed an MIC in data set [3] of 0.0234 µg/mL (≈ 0.171 µM).
